The test system of series [1] is Vicia faba. The series is described as follows: Herbicidal activity against Vicia faba assessed as change in 12 mM KCl-induced depolarization of transmembrane potential difference in mesophyll cells at 1 mM after 1 hr by electrophysiological assay. In kind it is functional, organism-based.
Series [2] has as its system Vicia faba. The series is described as follows: Herbicidal activity against Vicia faba assessed as change in 10 mM sucrose-induced depolarization of transmembrane potential difference in mesophyll cells at 1 mM after 1 hr by electrophysiological assay (reference value: 9.2 +/- 7.1 mV). Type of series: functional.
Series [3] concerns Vicia faba. The series is described as follows: Herbicidal activity against Vicia faba assessed as reduction in 10 mM threonine-induced depolarization of transmembrane potential difference in mesophyll cells at 1 mM after 1 hr by electrophysiological assay (reference value: 27.9 +/- 12.7 mV). Type of series: functional.
The subject of series [4] is Vicia faba. The series is described as follows: Herbicidal activity against Vicia faba assessed as change in transmembrane potential difference in mesophyll cells at 1 mM after 1 hr by electrophysiological assay (reference value: - 154 +/- 13.2 mV). Type of series: functional.
Series [5] in a line: Solubility in hydrochloric acid. Type of series: physicochemical.
Series [6] in a line: Solubility in organic solvents. Type of series: physicochemical.
The nature of series [7]: Solubility in water. Type of series: physicochemical. Particulars: buffer.
Series [8] concerns Vicia faba. The series is described as follows: Herbicidal activity against Vicia faba assessed as 1 mM of L-[3H]lysine uptake in leaf at 1 mM after 1 hr by liquid scintillation counting analysis relative to untreated control. Type of series: functional, organism-based.
Series [9] relates to Vicia faba. The series is described as follows: Herbicidal activity against Vicia faba assessed as 1 mM of L-[3H]glutamate uptake in leaf at 1 mM after 1 hr by liquid scintillation counting analysis relative to untreated control. In kind it is functional.
Series [10] has as its system Vicia faba. The series is described as follows: Herbicidal activity against Vicia faba assessed as inhibition of 1 mM of [U-14C]theronine loading in phloem after 1 hr by autoradiographic analysis relative to untreated control. In kind it is functional, organism-based.
The test system of series [11] is Vicia faba. Description: Herbicidal activity against Vicia faba assessed as inhibition of 1 mM of [3H]sucrose uptake in leaf at 1 mM after 1 hr by liquid scintillation counting analysis relative to untreated control. Type of series: functional, organism-based.
Series [12] has as its system Vicia faba. Description: Herbicidal activity against Vicia faba assessed as inhibition of 1 mM of L-[3H]theronine uptake in leaf at 1 mM after 1 hr by liquid scintillation counting analysis relative to untreated control. Type of series: functional.
Series [13] can be described thus: Octanol-water partition coefficient, log KOW of the compound. In kind it is physicochemical. Particulars: read-out: log KOW.
Series [14] relates to Vicia faba. The series is described as follows: Herbicidal activity against Vicia faba assessed as 1 mM of L-[3H]theronine uptake in leaf at 10 mM after 1 hr by liquid scintillation counting analysis relative to untreated control. In kind it is functional.
Series [15] has as its system Vicia faba. Description: Herbicidal activity against Vicia faba assessed as 1 mM of L-[3H]theronine uptake in leaf at 5 mM after 1 hr by liquid scintillation counting analysis relative to untreated control. Type of series: functional.
The subject of series [16] is Vicia faba. Description: Herbicidal activity against Vicia faba assessed as 1 mM of L-[3H]theronine uptake in leaf at 1 mM after 1 hr by liquid scintillation counting analysis relative to untreated control. Type of series: functional.
The subject of series [17] is Vicia faba. The series is described as follows: Herbicidal activity against Vicia faba assessed as inhibition of 1 mM of [U-14C]theronine uptake in veins after 1 hr by autoradiographic analysis relative to untreated control. In kind it is functional, organism-based.
Series [18] has as its system Vicia faba. The series is described as follows: Herbicidal activity against Vicia faba assessed as inhibition of 1 mM of [U-14C]theronine uptake in mesophyll after 1 hr by autoradiographic analysis relative to untreated control. Type of series: functional, organism-based.
Series [19] deals with Vicia faba. The series is described as follows: Herbicidal activity against Vicia faba assessed as inhibition of threonine uptake. In kind it is functional, organism-based. Particulars: read-out: Ki(app).
The test system of series [20] is Vicia faba. Description: Herbicidal activity against Vicia faba assessed as change in 12 mM KCl-induced depolarization of transmembrane potential difference in mesophyll cells at 2.5 mM after 1 hr by electrophysiological assay. In kind it is functional, organism-based.
For series [21], the system named is Vicia faba. The series is described as follows: Herbicidal activity against Vicia faba assessed as change in 10 mM sucrose-induced depolarization of transmembrane potential difference in mesophyll cells at 2.5 mM after 1 hr by electrophysiological assay relative to control. Type of series: functional, organism-based.
In series [22] the test system is Vicia faba. The series is described as follows: Herbicidal activity against Vicia faba assessed as reduction in 10 mM threonine-induced depolarization of transmembrane potential difference in mesophyll cells at 2.5 mM after 1 hr by electrophysiological assay relative to control. Type of series: functional, organism-based.
In series [23] the test system is Vicia faba. The series is described as follows: Herbicidal activity against Vicia faba assessed as decrease in 1 mM of L-[3H]lysine uptake in leaf at pH 3.5 at 2.5 mM after 1 hr by liquid scintillation counting analysis. In kind it is functional, organism-based.
Series [24] relates to Vicia faba. The series is described as follows: Herbicidal activity against Vicia faba assessed as inhibition of 1 mM of L-[3H]lysine uptake in leaf at pH 4 at 2.5 mM after 1 hr by liquid scintillation counting analysis. Type of series: functional.
For series [25], the system named is Vicia faba. Description: Herbicidal activity against Vicia faba assessed as inhibition of 1 mM of L-[3H]threonine uptake in leaf at pH 4 at 2.5 mM after 1 hr by liquid scintillation counting analysis. In kind it is functional.
Series [26] concerns Vicia faba. Description: Herbicidal activity against Vicia faba assessed as inhibition of 1 mM of L-[3H]glutamate uptake in leaf at pH 4 at 2.5 mM after 1 hr by liquid scintillation counting analysis. In kind it is functional.
In series [27] the test system is Vicia faba. Description: Herbicidal activity against Vicia faba assessed as decrease in 1 mM of L-[3H]lysine uptake in leaf at pH 8 at 2.5 mM after 1 hr by liquid scintillation counting analysis. In kind it is functional, organism-based.
The subject of series [28] is Vicia faba. Description: Herbicidal activity against Vicia faba assessed as decrease in 1 mM of L-[3H]glutamate uptake in leaf at pH 8 at 2.5 mM after 1 hr by liquid scintillation counting analysis. In kind it is functional, organism-based.
Series [29] relates to Vicia faba. The series is described as follows: Herbicidal activity against Vicia faba assessed as 1 mM of L-[3H]theronine uptake in leaf at 20 uM after 1 hr by liquid scintillation counting analysis relative to untreated control. Type of series: functional.
Series [30] has as its system Vicia faba. The series is described as follows: Herbicidal activity against Vicia faba assessed as 1 mM of L-[3H]theronine uptake in leaf at 10 uM after 1 hr by liquid scintillation counting analysis relative to untreated control. In kind it is functional.
Series [31] has as its system Vicia faba. Description: Herbicidal activity against Vicia faba assessed as 1 mM of L-[3H]theronine uptake in leaf at 5 uM after 1 hr by liquid scintillation counting analysis relative to untreated control. Type of series: functional.

The source made the active and inactive calls. No cut-off for these calls is given here.

On to `N[C@@H](CCCCNC(=O)CCCOc1ccc(Cl)cc1Cl)C(=O)O`, for which the outcome in the series on Vicia faba [1] was inactive. For the same compound, the Activity with Vicia faba [2] is 10.1 mV; in the series on Vicia faba [3], 10.2 mV; in the series with Vicia faba [4] it was -161.9 mV. Moreover, the solubility entry is “soluble” in series [5], “Insoluble” in [6] and “soluble” in series [7]. Further, the inhibition entry in the series with Vicia faba [8], in the series on Vicia faba [9], with Vicia faba [10] and in the series on Vicia faba [12] was “Active” in each case. In addition, the inhibition result in the series on Vicia faba [11] was “inactive”. Also, the logP in [13] is -0.49.

Consider `N[C@@H](CCCCNC(=O)COc1ccc(Cl)cc1)C(=O)O` [L-LYSINE-4-CHLOROPHENOXYACETIC ACID], for which, in the series with Vicia faba [11], the inhibition entry was “inactive”.

As for `Cc1cc(Cl)ccc1OCC(=O)NCCCC[C@H](N)C(=O)O` [L-LYSINE-2-METHYL-4-CHLOROROPHENOXYACETIC ACID], the solubility result in series [5] is “soluble”; in [6], “Insoluble”; in series [7] it was “soluble”. For the same compound, in the series on Vicia faba [11], the inhibition result is “inactive”. For the same compound, the inhibition entry with Vicia faba [12] was “Active”. The logP in [13] is -0.59.

Turning to `CC(C)[C@H](N)C(=O)O` [VALINE], the values for the Activity with Vicia faba [14], in the series with Vicia faba [15] and with Vicia faba [16] were 63.7%, 77.4% and 99.2%, respectively.

Take `Nc1ccc(OCC(=O)NCCCC[C@H](N)C(=O)O)cc1`: the results for the solubility result in series [5], in series [6] and in series [7] were “soluble”, “Insoluble” and “soluble”, respectively. The inhibition result in the series on Vicia faba [17] and in the series with Vicia faba [18] was “Active” throughout. Also, the inhibition entry with Vicia faba [11] and in the series on Vicia faba [12] was “inactive” throughout. Further, the logP in [13] was -3.

Consider `N[C@@H](CCCCNC(=O)COc1ccccc1)C(=O)O` [L-LYSINE-PHENOXYACETIC ACID], for which the inhibition entry with Vicia faba [8], with Vicia faba [17] and in the series with Vicia faba [18] was “Active” throughout. Moreover, in the series with Vicia faba [11], the inhibition result is “inactive”.

For the compound `NCCCC[C@H](N)C(=O)O` [LYSINE], the Activity in the series on Vicia faba [14] is given as 104%; in the series with Vicia faba [15] it was 99.6%; with Vicia faba [16], 97%.

As to `N[C@@H](CCCCNC(=O)COc1ccc(Cl)cc1Cl)C(=O)O`, in the series with Vicia faba [19], the Ki came to 500 µM. Besides, the outcome with Vicia faba [20], with Vicia faba [21], in the series on Vicia faba [22] and with Vicia faba [23] was inactive. The results for the “inhibition (INH)” value in the series with Vicia faba [24], with Vicia faba [25] and in the series with Vicia faba [26] were 81%, 79% and 51%, respectively. Also, the result with Vicia faba [27] and in the series on Vicia faba [28] was Active. Besides, the solubility result in series [5] is reported as “soluble”; in series [6], “Insoluble”; in [7] it was “soluble”. In addition, the inhibition result with Vicia faba [8], in the series on Vicia faba [9] and in the series with Vicia faba [12] was “Active” in each case. Further, the values for the Activity with Vicia faba [29], with Vicia faba [30] and in the series with Vicia faba [31] were 80.7%, 91% and 91.8%, respectively. The inhibition entry with Vicia faba [11] was “inactive”. Moreover, in series [13], the logP was -0.49.

With `N[C@@H](CCC(=O)O)C(=O)O` [GLUTAMIC ACID], the Activity in the series on Vicia faba [14] came out at 67.2%; in the series with Vicia faba [15], 76.2%; with Vicia faba [16] it was 96.7%.

On to `N[C@@H](CCCCNC(=O)COc1ccc([N+](=O)[O-])cc1)C(=O)O` [L-LYSINE-4-NITROPHENOXYACETICACID], for which the inhibition result with Vicia faba [11] is “inactive”.

`N[C@H](CCCCNC(=O)COc1ccc(Cl)cc1Cl)C(=O)O` [D-LYSINE-2,4-DICHLOROPHENO-XYACETIC ACID]: the inhibition entry with Vicia faba [17] and in the series on Vicia faba [18] was “inactive” throughout. Further, in the series on Vicia faba [16], the Activity amounted to 74.2%.
